| Substance | cytotoxicity (primary neurons) | N. Red (neutral red incorporation) (neuronal cells) |
| --- | --- | --- |
| H-ISFLIF-OH [NH2—ISFLIF—COOH] | dramatic cytotoxicity | – |
| ganglioside GM1 | – | 36.1 ± 2.9 |
| H-STVIIE-OH [NH2—STVIIE—COOH] | dramatic cytotoxicity | – |
| H-KVQIIN-OH [NH2—KVQIIN—COOH] | dramatic cytotoxicity | – |

Source: patent US20100093001A1 (priority 2006, published 2010)
